Reference: US12174461B2, “Sustained release of oleic acid from contact lenses” (CooperVision International Limited, priority 2022, dated 2024)

Legend:
[1] = test system: sPLA2 enzymes found in human tears; test: Susceptibility of phospholipid in a silicone hydrogel contact lens body to digestion by tear sPLA2 enzymes; type: biochemical; conditions: phospholipid present in a silicone hydrogel contact lens body
Description: To achieve these and other advantages, and in accordance with the purposes of the present invention, as embodied and broadly described herein, the present invention, in part relates to a hydrogel contact lens comprising a polymeric lens body loaded with 2-oleoyl phospholipid. The 2-oleoyl phospholipid is advantageously susceptible to digestion by secretory phospholipase 2-acylhydrolase (sPLA2) enzymes found in human tears, especially group IIA secretory phospholipase 2-acylhydrolase (sPLA2-IIA). The 2-oleoyl phospholipid present in the contact lens body is advantageously susceptible to digestion by sPLA2 enzymes found in human tears, especially sPLA2-IIA when the 2-oleoyl phospholipid is present in the polymeric lens body of a silicone hydrogel contact lens, such as a stenfilcon A contact lens. […] For the avoidance of doubt, while the determination of whether a 2-oleoyl phospholipid is susceptible to digestion by sPLA2 enzymes may be carried out by loading the 2-oleoyl phospholipid to a stenfilcon A lens, the contact lens of the invention, including contact lenses comprising 2-oleoyl phospholipid that have been determined to be susceptible to digestion by sPLA2 enzymes, need not be stenfilcon A lenses and may be silicone hydrogel lenses of any formulation. […]

[2] = molecular target: T1, recombinant human PLA2G2A (sPLA2-IIA) (Homo sapiens, UniProt P14555); test: sPLA2 digestion assay: oleic acid release from stenfilcon A lenses loaded with phospholipid, in ATF with and without sPLA2 (LCMS); type: biochemical; conditions: 35±2° C., 4 hours; for Oleic acid peak area in ATF (without sPLA2): 4 mm piece of phospholipid-loaded stenfilcon A lens in 100 μL ATF; for Ratio of OA peak area in ATF with and without sPLA2: stenfilcon A lens pieces, 50 ppm sPLA2
T1 construct: purchased Creative BioMart PLA2G2A-669H
T1 sequence (P14555 21-144): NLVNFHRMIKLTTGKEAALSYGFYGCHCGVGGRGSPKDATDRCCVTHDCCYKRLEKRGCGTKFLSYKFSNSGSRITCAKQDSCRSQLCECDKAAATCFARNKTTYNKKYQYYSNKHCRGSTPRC
Procedure: The phospholipids shown in Table 1 were obtain from Avanti Polar Lipids. 3 mg/ml loading solutions of the phospholipids shown in Table 1 were prepared by adding 2.4 mL ethanol to 9 mg of phospholipid, sonicating (up to 15 minutes) then adding 0.6 mL DI water and sonicating again (up to 15 minutes) to dissolve the phospholipid.
Hydrated contact lenses made from stenfilcon A were washed three times in 3 mL purified water for 30 minutes each time. Each washed lens was placed in 3 mL of a phospholipid loading solution and incubated at room temperature with gentle shaking at 75 rpm for 3 hours. The loaded lenses were then rinsed and hydrated in several exchanges of DI water. The lenses were packaged in a buffered saline contact lens packaging solution and autoclaved.
An artificial tear fluid (ATF) was prepared by adding the first three ingredients listed in Table 2 to a clean class vial and then adding 30 mL of the fourth ingredient.
After autoclave each lens was removed from its package and place in a 6 mL glass vial containing 5 mL of the ATF at room temperature on a shaker at 125 rpm overnight to elute any free oleic acid that may be present in the lens.
Each lens was rinsed in a 6 ml glass vial containing a fresh aliquot of 5 mL ATF for 30 minutes prior to running the digestion assay.
A 50 ppm solution of sPLA2 was prepared in ATF by adding 200 μl ATF to a tube containing 10 μg recombinant human PLA2G2A (Creative BioMart, Cat. No. PLA2G2A-669H). The solution is referred to as ATF+sPLA2. Two 4 mm pieces were cut from each lens. One piece of each lens was placed in a tube with 100 μL ATF and the other piece was placed in a tube containing 100 μL ATF+sPLA2. The tubes were incubated at 35±2° C. for 4 hours with no shaking.
50 μl of the release media from each lens at T=4 hr was transferred to HPLC vials and 500 μl isopropanol (IPA) was added and mixed well. T=0 hr HPLC vials were also prepared (50 μl ATF+500 μl IPA). All vials were sonicated for 15 minutes and centrifuged. The supernatant was removed for LCMS injection.
The supernatants were injected on an LCMS instrument equipped with an ACQUITY UPLC BEH C18 […], 2.1 mm×15 cm column and running a mobile phase gradient from 65% A to 90% B at a flow rate of 0.35 mL/min with A=40% acetonitrile in water with 10 mM ammonium acetate and 0.2% (v/v) ammonium hydroxide, and B=10% acetonitrile in IPA with 10 mM ammonium acetate and 0.2% (v/v) ammonium hydroxide. The mass spec detector is run at negative electrospray mode. The peaks for oleic acid (OA) in the supernatants were measured (m/z trace=281.24). The ratio of OA peak area in ATF with and without sPLA2 was calculated.

[3] = Amount of DOPG loaded in stenfilcon A lens, by IPA extraction and LCMS; type: physicochemical; conditions: about 90 minutes
Procedure: 1,2-Dioleoyl-sn-glycero-3-phospho-rac-(1-glycerol) sodium salt (DOPG) from Sigma-Aldrich was dissolved into a 50% by volume ethanol (EtOH) 50% by volume deionized water solution and sonicated until the DOPG was fully dissolved to provide DOPG loading solutions ranging in concentration from 1 mg/ml to 10 mg/ml.
Silicone hydrogel contact lenses were prepared by curing the formulation for stenfilcon A in polypropylene contact lens molds. The cured stenfilcon A was removed from the molds, and each lens was extracted in EtOH to remove unreacted monomer. The lenses were then placed in the DOPG loading solutions for about 90 minutes and then hydrated in several exchanges of DI water. The lenses were packaged in plastic blisters with about 1.2 ml of a packaging solution comprising phosphate buffered saline (PBS) and autoclaved.
The amount of DOPG in each lens was determined by extracting the lens with isopropanol (IPA) and measuring DOPG in the extract by LCMS. Briefly, each lens was removed from its blister pack, lightly blotted to remove excess packaging solution, and placed in a 20 mL glass vial containing 10 mL 100% IPA. The vials were placed on a bench top shaker at 300 rpm overnight (˜16 hours) at room temperature. For stenfilcon A, a single […] extraction step is sufficient to extract substantially all the DOPG from the lense. Silicone hydrogel lens materials that are more hydrophobic may require a second overnight extraction in order to extract all the DOPG, in which case the IPA from the first extraction step is removed and replaced with 3 mL fresh IPA and shaken overnight at 300 rpm at room temperature. The amount of DOPG in the IPA extract from each lens is determined by LCMS compared to a DOPG standard solution.

Oleic acid peak area in ATF (without sPLA2) ([2]; LCMS m/z 281.24) | Ratio of OA peak area in ATF with and without sPLA2 [2] | Structure (SMILES) | further results
 |  | CCCCCCCCCCCCCC(=O)OC[C@H](COP(=O)([O-])OCC[N+](C)(C)C)OC(=O)CCCCCCCCCCCCC [DMPC, 1,2-dimyristoyl-sn-glycero-3-phosphocholine] | Susceptibility to digestion by sPLA2 enzymes found in human tears [1]: not be susceptible to digestion by sPLA2 enzymes
102 | 1.2 | CCCCCCCC/C=C\CCCCCCCC(=O)OC[C@H](COP(=O)([O-])OCC[N+](C)(C)C)OC(=O)CCCCCCC/C=C\CCCCCCCC [DOPC, 1,2-dioleoyl-sn-glycero-3-phosphocholine, reference compound] | 
36 | 279 | CCCCCCCC/C=C\CCCCCCCC(=O)OC[C@H](COP(=O)(O)OCC(O)CO)OC(=O)CCCCCCC/C=C\CCCCCCCC (mixture of isomers) [DOPG, 1,2-dioleoyl-sn-glycero-3-phospho-(1′-rac-glycerol)] | Oleic acid peak area in ATF + sPLA2 ([2]; 4 mm piece of phospholipid-loaded stenfilcon A lens in 100 μL ATF + 50 ppm recombinant human PLA2G2A, LCMS m/z 281.24): 9958; Average amount of DOPG/lens ([3]; DOPG loading concentration 1.0 mg/mL in 50% EtOH/water): 240 µg; Average amount of DOPG/lens ([3]; DOPG loading concentration 2.5 mg/mL in 50% EtOH/water): 495 µg; Average amount of DOPG/lens ([3]; DOPG loading concentration 5.0 mg/mL in 50% EtOH/water): 760 µg; Average amount of DOPG/lens ([3]; DOPG loading concentration 7.5 mg/ml in 50% EtOH/water): 895 µg; Average amount of DOPG/lens ([3]; DOPG loading concentration 10.0 mg/ml in 50% EtOH/water): 975 µg
463 | 4.6 | CCCCCCCC/C=C\CCCCCCCC(=O)OC[C@H](COP(=O)(O)OCCN)OC(=O)CCCCCCC/C=C\CCCCCCCC [DOPE, 1,2-dioleoyl-sn-glycero-3-phosphoethanolamine] | 

Structure (SMILES) | Oleic acid peak area in ATF (without sPLA2) ([2]; LCMS m/z 281.24) | Ratio of OA peak area in ATF with and without sPLA2 [2] | further results
CCCCCCCC/C=C\CCCCCCCC(=O)OC[C@H](COP(=O)(O)OC[C@H](N)C(=O)O)OC(=O)CCCCCCC/C=C\CCCCCCCC [DOPS, 1,2-dioleoyl-sn-glycero-3-phospho-L-serine] | 88 |  | 
